Data published in US8222284B2, “Stable formulations of thiadiazole derivative” (Eli Lilly and Company, priority 2007, dated 2012).

Key:
Format in all cases: physicochemical
[1] = Enantiomeric stability when dissolved in organic solvents and aqueous/solvent mixtures
Protocol: (§1) Stability for N-{4-(2,2-dimethyl-propionyl)-(5R)-5-[(2-ethylamino-ethanesulfonylamino)-methyl]-5-phenyl-4.5-dihydro-[1,3,4]thiadiazol-2-yl}-2,2-dimethyl-propionamide (the compound) is assessed at 0.1 mg/mL in various buffers adjusted from pH 2 through 8 with various pH adjusting agents (e.g. 0.1 and 1 N HCl; 0.1, 1, and 5 N NaOH) and at different storage conditions (e.g. 5° C., 25° C., and 40° C. at 75% relative humidity). Hereinafter, the 40° C. at 75% relative humidity storage condition will be referred to as 40° C. These buffers include 10 mM and 50 mM tartrate (40° C.), 10 mM phosphate (25 and 40° C.), 50 mM phosphate (40° C.), and 10 mM citrate (25 and 40° C. Additional solution stability studies include 10 mM citrate (pH 8; 5° C., 25° C., and 40° C.) and 10 mM NaCl, 10 mM sodium sulfate, 10 mM mesylate, 10 mM tartrate, 10 mM phosphate, and 10 mM citrate (pH 8, 40° C). Lyophilized stability studies for N-{4-(2,2-dimethyl-propionyl)-(5R)-5-[(2-ethylamino-ethanesulfonylamino)-methyl]-5-phenyl-4,5-dihydro-[1,3,4]thiadiazol-2-yl}- 2-dimethyl-propionamide involve solutions containing 10 mM tartrate buffer at pH 3 which are lyophilized and subjected to storage at 5° C., 25° C., and 40 ° C. for 1, 3, and 6 months. Finally, the enantiomeric stability for N-{4-(2,2-dimethyl-propionyl)-(5R)-5-[(2-ethylamino-ethanesulfonylamino-methyl]-5-phenyl-4,5-dihydro-[1,3,4]thiadiazol-2-yl}-2,2-dimethyl-propionamide is assessed when dissolved in various organic solvents and aqueous/solvent mixtures, including methanol, ethanol, acetonitrile, acetone, ethyl acetate, and 50% ethanol/50% water (all at 25° C. and 40° C.) and in 1-octanol (25° C.).
The enantiomeric stability is measured with a chiral HPLC assay employing polar ionic separation conditions. […] For this reason, the TEA and HOAc additives are accurately measured and then delivered by pipette into the mobile phase while stirring.

[2] = Lyophilized stability study (10 mM tartrate buffer pH 3, lyophilized and stored), chiral conversion
Protocol: as §1
(§2) The enantiomeric stability is measured with a chiral HPLC assay employing polar ionic separation conditions. Those conditions include Column: Chirobiotic T, 150×4.6 mm; Detector UV, 290 nm; Flow: 0.225-0.35 mL/min., adjust to optimize chiral separation; injection: 2 μL-10 μL; Column Temperature: 45° C.; Mobile Phase: 0.01% TEA, 1.0% HOAc, 1.0% water (DIW) in methanol. Enantioselectivity is very sensitive to mobile phase composition, specifically the acid:base ratio. For this reason, the TEA and HOAc additives are accurately measured and then delivered by pipette into the mobile phase while stirring.

[3] = Enantiomeric (chiral) stability of the compound in buffer solutions, chiral HPLC assay
Protocol: as §1, §2

## CCNCCS(=O)(=O)NC[C@@]1(c2ccccc2)SC(NC(=O)C(C)(C)C)=NN1C(=O)C(C)(C)C [the compound, N-{4-(2,2-dimethyl-propionyl)-(5R)-5-[(2-ethylamino-ethanesulfonylamino)-methyl]-5-phenyl-4,5-dihydro-[1,3,4]thiadiazol-2-yl}-2,2-dimethyl-propionamide]
[1]; in 50% ethanol/50% water (25° C. and 40° C.)
  stability / conversion to the S enantiomeric form, compared with the other solvents tested: less stable
[1]; in acetonitrile (25° C. and 40° C.)
  stability / conversion to the S enantiomeric form, compared with the other solvents tested: less stable
[1]; in ethyl acetate (25° C. and 40° C.)
  stability / conversion to the S enantiomeric form, compared with the other solvents tested: less stable
[2]; lyophilized formulation pH 3.0, 1 month, 5° C.
  chiral conversion of the compound: no chiral conversion
[2]; lyophilized formulation pH 3.0, 1 month, 25° C.
  chiral conversion of the compound: no chiral conversion
[2]; lyophilized formulation pH 3.0, 1 month, 40° C. (75% relative humidity)
  chiral conversion of the compound: no chiral conversion
[2]; lyophilized formulation pH 3.0, 3 months, 5° C.
  chiral conversion of the compound: no chiral conversion
[2]; lyophilized formulation pH 3.0, 3 months, 25° C.
  chiral conversion of the compound: no chiral conversion
[2]; lyophilized formulation pH 3.0, 3 months, 40° C. (75% relative humidity)
  chiral conversion of the compound: no chiral conversion
[2]; lyophilized formulation pH 3.0, 6 months, 5° C.
  chiral conversion of the compound: no chiral conversion
[2]; lyophilized formulation pH 3.0, 6 months, 25° C.
  chiral conversion of the compound: no chiral conversion
[2]; lyophilized formulation pH 3.0, 6 months, 40° C. (75% relative humidity)
  chiral conversion of the compound: no chiral conversion
[3]; 10 mM citrate buffer, pH 2.1, at least 96 hours, 40° C.
  chiral conversion of the compound: no chiral conversion
[3]; 10 mM citrate buffer, pH 2.1, at least 120 hours, 25° C.
  chiral conversion of the compound: no chiral conversion
[3]; 10 mM citrate buffer, pH 3.3, at least 96 hours, 40° C.
  chiral conversion of the compound: no chiral conversion
[3]; 10 mM citrate buffer, pH 3.3, at least 120 hours, 25° C.
  chiral conversion of the compound: no chiral conversion
[3]; 10 mM citrate buffer, pH 4.2, at least 96 hours, 40° C.
  chiral conversion of the compound: no chiral conversion
[3]; 10 mM citrate buffer, pH 4.2, at least 120 hours, 25° C.
  chiral conversion of the compound: no chiral conversion
[3]; 10 mM citrate buffer, pH 8.4, 24 hours, 25° C.
  % of the compound remains: 95.8%
[3]; 10 mM citrate buffer, pH 8.4, 120 hours, 5° C.
  % of the compound remains: 99.3%
[3]; 10 mM sodium phosphate buffer, pH 2.3, at least 120 hours, 25° C.
  chiral conversion of the compound: no chiral conversion
[3]; 10 mM sodium phosphate buffer, pH 2.3, at least 120 hours, 40° C.
  chiral conversion of the compound: no chiral conversion
[3]; 10 mM sodium phosphate buffer, pH 3.4, at least 120 hours, 25° C.
  chiral conversion of the compound: no chiral conversion
[3]; 10 mM sodium phosphate buffer, pH 3.4, at least 120 hours, 40° C.
  chiral conversion of the compound: no chiral conversion
[3]; 10 mM sodium phosphate buffer, pH 5.4, at least 120 hours, 25° C.
  chiral conversion of the compound: no chiral conversion
[3]; 10 mM sodium phosphate buffer, pH 5.4, at least 120 hours, 40° C.
  chiral conversion of the compound: no chiral conversion
[3]; 10 mM tartrate buffer, pH 2.1, at least 96 hours, 40° C., 0.1 mg/mL
  chiral conversion of the compound: no chiral conversion
[3]; 10 mM tartrate buffer, pH 3.1, at least 96 hours, 40° C., 0.1 mg/mL
  chiral conversion of the compound: no chiral conversion
[3]; 10 mM tartrate buffer, pH 4,1, at least 96 hours, 40° C., 0.1 mg/mL
  chiral conversion of the compound: no chiral conversion
[3]; 10 mM tartrate buffer, pH 6.2, 96 hours, 40° C.
  % of the compound remains: 97.5%
[3]; 10 mM tartrate buffer, pH 8.7, 96 hours, 40° C.
  % of the compound remains: 60.3%
[3]; 50 mM phosphate buffer, pH 2.2, at least 96 hours, 40° C.
  chiral conversion of the compound: no chiral conversion
[3]; 50 mM phosphate buffer, pH 3.3, at least 96 hours, 40° C.
  chiral conversion of the compound: no chiral conversion
[3]; 50 mM phosphate buffer, pH 5.0, at least 96 hours, 40° C.
  chiral conversion of the compound: no chiral conversion
[3]; 50 mM tartrate buffer, pH 2.0, at least 120 hours, 40° C., 0.1 mg/mL
  chiral conversion of the compound: no chiral conversion
[3]; 50 mM tartrate buffer, pH 2.9, at least 120 hours, 40° C., 0.1 mg/mL
  chiral conversion of the compound: no chiral conversion
[3]; 50 mM tartrate buffer, pH 3.9, at least 120 hours, 40° C., 0.1 mg/mL
  chiral conversion of the compound: no chiral conversion
[3]; citrate buffer, pH 6.2, 96 hours, 40° C.
  % of the compound remains: 98.2%
[3]; citrate buffer, pH 6.2, 120 hours, 25° C.
  % of the compound remains: 99.9%
